Source: patent US20250215012A1, “IKZF2 DEGRADERS AND USES THEREOF” (REGENTS OF THE UNIVERSITY OF MICHIGAN, priority 2022, published 2025)

Target: IKZF2 (Homo sapiens (Human), UniProt Q96SW2+Q9UKS7)
Experiment: IKZF2 HiBiT Assay (Jurkat-IKZF2-HiBiT cell line)
Assay type: cell-based
Conditions: Jurkat-IKZF2-HiBiT cells, 24 hours; for DC50: read-out: HiBit assay degradation analysis DC50; for Dmax: read-out: HiBit assay degradation analysis Dmax
Summary of the method: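 Jurkat cells carrying HiBiT-tagged IKZF2 were exposed to serially diluted compound for 24 h at 37 °C. Remaining IKZF2 was measured by Nano-Glo HiBiT lytic luminescence after 10-20 min at room temperature. Signal was normalized to DMSO, and IC50 came from a four-parameter variable-slope fit.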

Chain of IKZF2 (Q9UKS7 whole entry): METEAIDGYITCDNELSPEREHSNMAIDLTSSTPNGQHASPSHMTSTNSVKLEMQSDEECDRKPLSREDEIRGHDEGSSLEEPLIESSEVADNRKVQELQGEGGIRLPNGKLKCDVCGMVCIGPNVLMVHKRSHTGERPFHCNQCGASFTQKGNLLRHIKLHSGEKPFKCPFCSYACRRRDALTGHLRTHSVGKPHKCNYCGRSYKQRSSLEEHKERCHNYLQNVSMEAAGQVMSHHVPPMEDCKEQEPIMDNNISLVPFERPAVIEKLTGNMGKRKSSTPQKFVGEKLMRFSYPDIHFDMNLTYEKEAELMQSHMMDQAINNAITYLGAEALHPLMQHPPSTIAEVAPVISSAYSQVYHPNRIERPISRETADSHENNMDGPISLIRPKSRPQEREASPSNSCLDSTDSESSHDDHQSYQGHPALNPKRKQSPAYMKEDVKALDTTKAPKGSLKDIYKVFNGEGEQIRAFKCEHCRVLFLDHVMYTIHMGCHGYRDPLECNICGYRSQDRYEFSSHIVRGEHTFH
Chain of IKZF2 (Q96SW2 whole entry): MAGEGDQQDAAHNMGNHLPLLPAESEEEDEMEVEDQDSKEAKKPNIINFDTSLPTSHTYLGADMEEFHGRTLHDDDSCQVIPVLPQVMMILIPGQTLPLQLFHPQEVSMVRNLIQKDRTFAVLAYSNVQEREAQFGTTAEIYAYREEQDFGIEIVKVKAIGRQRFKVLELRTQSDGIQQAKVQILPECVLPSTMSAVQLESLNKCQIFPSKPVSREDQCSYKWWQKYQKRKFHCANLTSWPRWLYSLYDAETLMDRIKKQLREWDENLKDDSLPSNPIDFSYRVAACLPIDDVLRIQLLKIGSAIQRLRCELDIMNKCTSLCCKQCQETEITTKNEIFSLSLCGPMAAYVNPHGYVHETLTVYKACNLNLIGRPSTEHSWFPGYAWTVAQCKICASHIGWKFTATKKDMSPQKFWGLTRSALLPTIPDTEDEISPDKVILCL
Chain of IKZF2 (Q16531 whole entry partner): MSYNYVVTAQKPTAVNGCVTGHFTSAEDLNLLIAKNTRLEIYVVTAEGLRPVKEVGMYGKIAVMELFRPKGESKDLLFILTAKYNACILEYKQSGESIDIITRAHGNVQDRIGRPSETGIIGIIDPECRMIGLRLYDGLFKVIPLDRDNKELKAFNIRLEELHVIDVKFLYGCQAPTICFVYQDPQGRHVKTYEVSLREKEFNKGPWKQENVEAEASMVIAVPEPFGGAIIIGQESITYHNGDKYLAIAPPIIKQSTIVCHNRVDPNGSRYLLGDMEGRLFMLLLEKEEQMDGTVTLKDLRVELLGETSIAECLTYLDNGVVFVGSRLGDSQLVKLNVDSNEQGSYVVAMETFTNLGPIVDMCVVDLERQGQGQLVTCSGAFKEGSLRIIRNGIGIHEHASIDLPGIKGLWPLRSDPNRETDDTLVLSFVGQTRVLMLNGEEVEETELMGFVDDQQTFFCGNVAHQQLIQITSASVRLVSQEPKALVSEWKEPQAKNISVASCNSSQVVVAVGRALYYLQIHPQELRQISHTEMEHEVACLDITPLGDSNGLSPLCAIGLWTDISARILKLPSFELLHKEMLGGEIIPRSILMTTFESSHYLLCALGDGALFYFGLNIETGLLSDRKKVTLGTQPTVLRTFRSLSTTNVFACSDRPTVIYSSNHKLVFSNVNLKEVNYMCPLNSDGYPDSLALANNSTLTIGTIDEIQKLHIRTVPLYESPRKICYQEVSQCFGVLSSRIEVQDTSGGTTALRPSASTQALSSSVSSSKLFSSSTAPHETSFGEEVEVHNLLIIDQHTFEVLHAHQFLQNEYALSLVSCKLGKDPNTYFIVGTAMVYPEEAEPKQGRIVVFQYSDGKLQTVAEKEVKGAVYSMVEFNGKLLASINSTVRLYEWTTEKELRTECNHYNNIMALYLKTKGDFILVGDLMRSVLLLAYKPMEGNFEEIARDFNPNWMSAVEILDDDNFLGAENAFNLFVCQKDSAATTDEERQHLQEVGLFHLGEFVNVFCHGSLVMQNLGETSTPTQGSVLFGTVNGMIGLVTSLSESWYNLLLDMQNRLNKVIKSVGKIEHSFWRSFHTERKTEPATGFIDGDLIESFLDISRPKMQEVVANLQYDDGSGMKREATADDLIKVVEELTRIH

O=C1CCC(N2Cc3c(ccc4c3OCC43CCN(Cc4cnc(-c5ccccc5)s4)CC3)C2=O)C(=O)N1 (centres unmarked) [Compound A81, 3-(6-oxo-1′-((2-phenylthiazol-5-yl)methyl)-6,8-dihydro-2H,7H-spiro[furo[2,3-e]isoindole-3,4′-piperidin]-7-yl)piperidine-2,6-dione]
DC50: > 500 nM | Dmax: < 40%

O=C1CCC(N2Cc3c(ccc4c3OCC43CCN(Cc4csc(-c5ccccc5)n4)CC3)C2=O)C(=O)N1 (centres unmarked) [Compound A82, 3-(6-oxo-1′-((2-phenylthiazol-4-yl)methyl)-6,8-dihydro-2H,7H-spiro[furo[2,3-e]isoindole-3,4′-piperidin]-7-yl)piperidine-2,6-dione]
DC50: > 500 nM | Dmax: < 40%

CS(=O)(=O)Nc1cccc(CN2CCC3(CC2)COc2c3ccc3c2CN(C2CCC(=O)NC2=O)C3=O)c1 (centres unmarked) [Compound A159, N-(3-((7-(2,6-dioxopiperidin-3-yl)-6-oxo-7,8-dihydro-2H,6H-spiro[furo[2,3-e]isoindole-3,4′-piperidin]-1′-yl)methyl)phenyl) methanesulfonamide]
DC50: > 500 nM | Dmax: 40 to 60%

O=C1CC[C@H](N2Cc3c(ccc4c3OCC43CCN(Cc4ccc5cn(C(F)F)nc5c4)CC3)C2=O)C(=O)N1 [Compound A288, (S)-3-(1′-((2-(difluoromethyl)-2H-indazol-6-yl)methyl)-6-oxo-6,8-dihydro-2H,7H-spiro[furo[2,3-e]isoindole-3,4′-piperidin]-7-yl)piperidine-2,6-dione]
DC50: < 50 nM | Dmax: 60 to 80%

O=C1CCC(N2Cc3c(ccc4c3OCC43CCN(Cc4ccc5ccncc5c4)CC3)C2=O)C(=O)N1 (centres unmarked) [Compound A45]
DC50: 200 to 500 nM | Dmax: 40 to 60%

O=C1CCC(N2Cc3c(ccc4c3COC43CCN(Cc4cccc(-c5cc[nH]n5)c4)CC3)C2=O)C(=O)N1 (centres unmarked) [Compound A260, 3-(1′-(3-(1H-pyrazol-3-yl)benzyl)-6-oxo-6,8-dihydrospiro[furo[3,4-e]isoindoline-3,4′-piperidin]-7(1H)-yl)piperidine-2,6-dione]
DC50: > 500 nM | Dmax: 40 to 60%

Cc1c2ccc(CN3CCC4(CC3)COc3c4ccc4c3CN([C@H]3CCC(=O)NC3=O)C4=O)cc2nn1C [Compound A295, (S)-3-(1′-((2,3-dimethyl-2H-indazol-6-yl)methyl)-6-oxo-6,8-dihydro-2H,7H-spiro[furo[2,3-e]isoindole-3,4′-piperidin]-7-yl)piperidine-2,6-dione]
DC50: < 50 nM | Dmax: 60 to 80%

CNC(=O)c1cccc(CN2CCC3(CC2)COc2c3ccc3c2CN(C2CCC(=O)NC2=O)C3=O)c1 (centres unmarked) [Compound A95]
DC50: > 500 nM | Dmax: 40 to 60%

O=C1CCC(N2Cc3c(ccc4c3OCC43CCN(Cc4ccccc4OCc4ccccn4)CC3)C2=O)C(=O)N1 (centres unmarked) [Compound A157, 3-(6-oxo-1′-(2-(pyridin-2-ylmethoxy)benzyl)-6,8-dihydro-2H,7H-spiro[furo[2,3-e]isoindole-3,4′-piperidin]-7-yl)piperidine-2,6-dione]
DC50: < 50 nM | Dmax: 60 to 80%

O=C1CCC(N2Cc3c(ccc4c3OCC43CCN(Cc4cccc(-c5nccs5)c4)CC3)C2=O)C(=O)N1 (centres unmarked) [Compound A106, 3-(6-oxo-1′-(3-(thiazol-2-yl)benzyl)-6,8-dihydro-2H,7H-spiro[furo[2,3-e]isoindole-3,4′-piperidin]-7-yl)piperidine-2,6-dione]
DC50: < 50 nM | Dmax: 60 to 80%

O=C1CC[C@H](N2Cc3c(ccc4c3OCC43CCN(Cc4cnn(S(=O)(=O)c5cccc(Cl)c5F)c4)CC3)C2=O)C(=O)N1 [Compound A357, (S)-3-(1′-((1-((3-chloro-2-fluorophenyl)sulfonyl)-1H-pyrazol-4-yl)methyl)-6-oxo-6,8-dihydro-2H,7H-spiro[furo[2,3-e]isoindole-3,4′-piperidin]-7-yl)piperidine-2,6-dione]
Dmax: 60 to 80%

O=C1CCC(N2Cc3c(ccc4c3OCC43CCN(Cc4nccc5ccccc45)CC3)C2=O)C(=O)N1 (centres unmarked) [Compound A42, 3-(1′-(isoquinolin-1-ylmethyl)-6-oxo-6,8-dihydro-2H,7H-spiro[furo[2,3-e]isoindole-3,4′-piperidin]-7-yl)piperidine-2,6-dione]
DC50: > 500 nM | Dmax: < 40%

O=C1CCC(N2Cc3c(ccc4c3OCC43CCN(Cc4c(F)ccc5occc45)CC3)C2=O)C(=O)N1 (centres unmarked) [Compound A223, 3-(1′-((5-fluorobenzofuran-4-yl)methyl)-6-oxo-6,8-dihydro-2H,7H-spiro[furo[2,3-e]isoindole-3,4′-piperidin]-7-yl)piperidine-2,6-dione]
DC50: 200 to 500 nM | Dmax: 40 to 60%

CC(C)c1cccc(CN2CCC3(CC2)COc2c3ccc3c2CN(C2CCC(=O)NC2=O)C3=O)c1 (centres unmarked) [Compound A203, 3-(1′-(3-isopropylbenzyl)-6-oxo-6,8-dihydro-2H,7H-spiro[furo[2,3-e]isoindole-3,4′-piperidin]-7-yl)piperidine-2,6-dione]
DC50: > 500 nM | Dmax: < 40%

O=C1CCC(N2Cc3c(ccc4c3OCC43CCN(Cc4nc(-c5ccccc5)cs4)CC3)C2=O)C(=O)N1 (centres unmarked) [Compound A85, 3-(6-oxo-1′-((4-phenylthiazol-2-yl)methyl)-6,8-dihydro-2H,7H-spiro[furo[2,3-e]isoindole-3,4′-piperidin]-7-yl)piperidine-2,6-dione]
DC50: > 500 nM | Dmax: < 40%

O=C1CCC(N2Cc3c(ccc4c3OCC43CCN(Cc4cccs4)CC3)C2=O)C(=O)N1 (centres unmarked) [Compound A182, 3-(6-oxo-1′-(thiophen-2-ylmethyl)-6,8-dihydro-2H,7H-spiro[furo[2,3-e]isoindole-3,4′-piperidin]-7-yl)piperidine-2,6-dione]
DC50: > 500 nM | Dmax: 40 to 60%

O=C1CCC(N2Cc3c(ccc4c3OCC43CCN(Cc4ccnc5[nH]ccc45)CC3)C2=O)C(=O)N1 (centres unmarked) [Compound A73, 3-(1′-((1H-pyrrolo[2,3-b]pyridin-4-yl)methyl)-6-oxo-6,8-dihydro-2H,7H-spiro[furo[2,3-e]isoindole-3,4′-piperidin]-7-yl)piperidine-2,6-dione]
DC50: > 500 nM | Dmax: 40 to 60%

O=C1CCC(N2Cc3c(ccc4c3OCC43CCN(Cc4cccc5sccc45)CC3)C2=O)C(=O)N1 (centres unmarked) [Compound A186, 3-(1′-(benzo[b]thiophen-4-ylmethyl)-6-oxo-6,8-dihydro-2H,7H-spiro[furo[2,3-e]isoindole-3,4′-piperidin]-7-yl)piperidine-2,6-dione]
DC50: < 50 nM | Dmax: > 80%

O=C1CCC(N2Cc3c(ccc4c3OCC43CCN(Cc4cc(F)cc5ccoc45)CC3)C2=O)C(=O)N1 (centres unmarked) [Compound A117, 3-(1′-((5-fluorobenzofuran-7-yl)methyl)-6-oxo-6,8-dihydro-2H,7H-spiro[furo[2,3-e]isoindole-3,4′-piperidin]-7-yl)piperidine-2,6-dione]
DC50: 200 to 500 nM | Dmax: 40 to 60%

O=C1CCC(N2Cc3c(ccc4c3OCC43CCN(Cc4ccc5oncc5c4)CC3)C2=O)C(=O)N1 (centres unmarked) [Compound A60, 3-(1′-(benzo[d]isoxazol-5-ylmethyl)-6-oxo-6,8-dihydro-2H,7H-spiro[furo[2,3-e]isoindole-3,4′-piperidin]-7-yl)piperidine-2,6-dione]
DC50: > 500 nM | Dmax: 40 to 60%

O=C1CCC(N2Cc3c(ccc4c3OCC43CCN(Cc4cccc5c4OCO5)CC3)C2=O)C(=O)N1 (centres unmarked) [Compound A225, 3-(1′-(benzo[d][1,3]dioxol-4-ylmethyl)-6-oxo-6,8-dihydro-2H,7H-spiro[furo[2,3-e]isoindole-3,4′-piperidin]-7-yl)piperidine-2,6-dione]
DC50: > 500 nM | Dmax: 40 to 60%

O=C1CC[C@H](N2Cc3c(ccc4c3OCC43CCN(Cc4cnn(S(=O)(=O)c5ccccc5F)c4)CC3)C2=O)C(=O)N1 [Compound A355, (S)-3-(1′-((1-((2-fluorophenyl)sulfonyl)-1H-pyrazol-4-yl)methyl)-6-oxo-6,8-dihydro-2H,7H-spiro[furo[2,3-e]isoindole-3,4′-piperidin]-7-yl)piperidine-2,6-dione]
HiBit assay degradation analysis Dmax: C (“C” >=40% and <60%) | DC50: 200 to 500 nM

O=C1CCC(N2Cc3c(ccc4c3OCC43CCN(Cc4ccc(OCc5ccccc5)nc4)CC3)C2=O)C(=O)N1 (centres unmarked) [Compound A339, 3-(1′-((6-(benzyloxy)pyridin-3-yl)methyl)-6-oxo-6,8-dihydro-2H,7H-spiro[furo[2,3-e]isoindole-3,4′-piperidin]-7-yl)piperidine-2,6-dione]
DC50: > 500 nM | Dmax: 40 to 60%

Cn1cc2c(CN3CCC4(CC3)COc3c4ccc4c3CN(C3CCC(=O)NC3=O)C4=O)cccc2n1 (centres unmarked) [Compound A67, 3-(1′-((2-methyl-2H-indazol-4-yl)methyl)-6-oxo-6,8-dihydro-2H,7H-spiro[furo[2,3-e]isoindole-3,4′-piperidin]-7-yl)piperidine-2,6-dione]
DC50: 50 to 200 nM | Dmax: 60 to 80%

Cn1ncc2cc(F)c(CN3CCC4(CC3)COc3c4ccc4c3CN(C3CCC(=O)NC3=O)C4=O)cc21 (centres unmarked) [Compound A140, 3-(1′-((5-fluoro-1-methyl-1H-indazol-6-yl)methyl)-6-oxo-6,8-dihydro-2H,7H-spiro[furo[2,3-e]isoindole-3,4′-piperidin]-7-yl)piperidine-2,6-dione]
DC50: > 500 nM | Dmax: 40 to 60%

O=C1CCC(N2Cc3c(ccc4c3OCC43CCN(CC4CC5CCC4C5)CC3)C2=O)C(=O)N1 (centres unmarked) [Compound A24, 3-(1′-(bicyclo[2.2.1]heptan-2-ylmethyl)-6-oxo-6,8-dihydro-2H,7H-spiro[furo[2,3-e]isoindole-3,4′-piperidin]-7-yl)piperidine-2,6-dione]
DC50: > 500 nM | Dmax: 40 to 60%

CO[C@H]1C[C@H](n2cc(-c3cccc(CN4CCC5(CC4)COc4c5ccc5c4CN([C@H]4CCC(=O)NC4=O)C5=O)c3)cn2)C1 [Compound A297, (S)-3-(1′-(3-(1-((1r,3r)-3-methoxycyclobutyl)-1H-pyrazol-4-yl)benzyl)-6-oxo-6,8-dihydro-2H,7H-spiro[furo[2,3-e]isoindole-3,4′-piperidin]-7-yl)piperidine-2,6-dione]
DC50: < 50 nM | Dmax: 60 to 80%
